According to article PMC10046369, “Low-Affinity/High-Selectivity Dopamine Transport Inhibition Sufficient to Rescue Cognitive Functions in the Aging Rat” (Biomolecules, 2023):

Columns and labels:
Test in all cases: biochemical
Set-up in all cases: KINOMEscan competition binding panel, per cent of control
Conditions in all cases: read-out: %Ctrl @ 2800nM
MARK2 = MARK2 (Homo sapiens, UniProt Q7KZI7)
Description: (§1) A panel of binding assays covering 450 human kinases and disease-relevant mutations was performed by DiscoverX (KINOMEscan®, Freemont, CA, USA) according to the standard and validated protocol defined by the contractor. […] Kinase binding assays This study was outsourced to DiscoverX (KINOMEscan®, Freemont, CA, USA) and is compliant with the corresponding project BUY004-01-p-00001. […] Results are reported as percent control (% Ctrl), where lower numbers indicate stronger hits in the matrix on the following page(s). %Ctrl calculation: ((test compound signal-positive control signal) / (negative control signal – positive control signal)) x 100.

MET(M1250T) = MET(M1250T) (Homo sapiens, UniProt P08581, M1250T)
Description: as §1

CDKL2 = CDKL2 (Homo sapiens, UniProt Q92772)
Description: as §1

ERN1 = ERN1 (Homo sapiens, UniProt O75460)
Description: as §1

[1] = biological target: T1, ABL1(Y253F)-phosphorylated (Homo sapiens, UniProt P00519, Y253F)
T1 construct: phosphorylated
Description: as §1

NEK9 = NEK9 (Homo sapiens, UniProt Q8TD19)
Description: as §1

MAP3K1 = MAP3K1 (Homo sapiens, UniProt Q13233)
Description: as §1

ERK5 = biological target: T2, ERK5 (Homo sapiens, UniProt Q13164)
T2 construct: gene MAPK7
Description: as §1

TGFBR1 = TGFBR1 (Homo sapiens, UniProt P36897)
Description: as §1

MAP3K15 = MAP3K15 (Homo sapiens, UniProt Q6ZN16)
Description: as §1

PLK1 = PLK1 (Homo sapiens, UniProt P53350)
Description: as §1

SGK = biological target: T3, SGK (Homo sapiens, UniProt O00141)
T3 construct: gene SGK1
Description: as §1

MEK5 = biological target: T4, MEK5 (Homo sapiens, UniProt Q13163)
T4 construct: gene MAP2K5
Description: as §1

TNK1 = TNK1 (Homo sapiens, UniProt Q13470)
Description: as §1

CSK = CSK (Homo sapiens, UniProt P41240)
Description: as §1

PRKD3 = PRKD3 (Homo sapiens, UniProt O94806)
Description: as §1

CSNK1G2 = CSNK1G2 (Homo sapiens, UniProt P78368)
Description: as §1

KIT = KIT (Homo sapiens, UniProt P10721)
Description: as §1

PFTAIRE2 = biological target: T5, PFTAIRE2 (Homo sapiens, UniProt Q96Q40)
T5 construct: gene CDK15
Description: as §1

BRK = biological target: T6, BRK (Homo sapiens, UniProt Q13882)
T6 construct: gene PTK6
Description: as §1

SRPK2 = SRPK2 (Homo sapiens, UniProt P78362)
Description: as §1

NEK6 = NEK6 (Homo sapiens, UniProt Q9HC98)
Description: as §1

FLT3(R834Q) = FLT3(R834Q) (Homo sapiens, UniProt P36888, R834Q)
Description: as §1

p38-alpha = biological target: T7, p38-alpha (Homo sapiens, UniProt Q16539)
T7 construct: gene MAPK14
Description: as §1

MAP4K2 = MAP4K2 (Homo sapiens, UniProt Q12851)
Description: as §1

INSRR = INSRR (Homo sapiens, UniProt P14616)
Description: as §1

T4 sequence (Q13163 whole entry): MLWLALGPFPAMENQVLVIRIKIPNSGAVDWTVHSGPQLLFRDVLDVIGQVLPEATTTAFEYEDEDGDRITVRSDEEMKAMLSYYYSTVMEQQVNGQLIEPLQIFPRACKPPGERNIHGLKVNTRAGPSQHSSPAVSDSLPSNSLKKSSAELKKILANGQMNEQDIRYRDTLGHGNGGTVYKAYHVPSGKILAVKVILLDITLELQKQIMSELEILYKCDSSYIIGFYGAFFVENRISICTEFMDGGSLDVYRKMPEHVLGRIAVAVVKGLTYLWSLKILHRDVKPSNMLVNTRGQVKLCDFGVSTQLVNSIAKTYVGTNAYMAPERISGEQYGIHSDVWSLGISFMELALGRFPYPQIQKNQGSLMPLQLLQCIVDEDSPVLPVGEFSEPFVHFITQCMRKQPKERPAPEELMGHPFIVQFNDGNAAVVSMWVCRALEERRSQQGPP
T2 sequence (Q13164 whole entry): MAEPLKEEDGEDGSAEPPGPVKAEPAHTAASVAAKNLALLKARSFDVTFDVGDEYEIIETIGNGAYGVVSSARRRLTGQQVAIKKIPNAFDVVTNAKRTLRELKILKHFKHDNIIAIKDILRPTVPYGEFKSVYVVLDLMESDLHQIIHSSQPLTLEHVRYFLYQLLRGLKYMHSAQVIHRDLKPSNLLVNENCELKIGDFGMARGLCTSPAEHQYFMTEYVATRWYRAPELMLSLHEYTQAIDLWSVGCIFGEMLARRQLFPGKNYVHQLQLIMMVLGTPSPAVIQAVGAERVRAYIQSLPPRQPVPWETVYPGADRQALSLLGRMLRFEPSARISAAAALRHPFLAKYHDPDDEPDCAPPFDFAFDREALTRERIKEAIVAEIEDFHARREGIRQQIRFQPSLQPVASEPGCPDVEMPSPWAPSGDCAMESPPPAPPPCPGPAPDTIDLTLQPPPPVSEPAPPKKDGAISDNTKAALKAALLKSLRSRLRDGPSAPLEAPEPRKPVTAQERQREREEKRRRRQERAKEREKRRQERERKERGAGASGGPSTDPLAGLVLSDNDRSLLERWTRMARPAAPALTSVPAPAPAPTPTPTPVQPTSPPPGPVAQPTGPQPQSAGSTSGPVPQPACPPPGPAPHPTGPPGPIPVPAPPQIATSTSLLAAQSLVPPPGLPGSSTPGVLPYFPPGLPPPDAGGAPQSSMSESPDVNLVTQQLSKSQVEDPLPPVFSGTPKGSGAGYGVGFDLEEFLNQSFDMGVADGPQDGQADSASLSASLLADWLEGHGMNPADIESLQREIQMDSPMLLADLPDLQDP
MAP3K15, sequence (Q6ZN16 whole entry): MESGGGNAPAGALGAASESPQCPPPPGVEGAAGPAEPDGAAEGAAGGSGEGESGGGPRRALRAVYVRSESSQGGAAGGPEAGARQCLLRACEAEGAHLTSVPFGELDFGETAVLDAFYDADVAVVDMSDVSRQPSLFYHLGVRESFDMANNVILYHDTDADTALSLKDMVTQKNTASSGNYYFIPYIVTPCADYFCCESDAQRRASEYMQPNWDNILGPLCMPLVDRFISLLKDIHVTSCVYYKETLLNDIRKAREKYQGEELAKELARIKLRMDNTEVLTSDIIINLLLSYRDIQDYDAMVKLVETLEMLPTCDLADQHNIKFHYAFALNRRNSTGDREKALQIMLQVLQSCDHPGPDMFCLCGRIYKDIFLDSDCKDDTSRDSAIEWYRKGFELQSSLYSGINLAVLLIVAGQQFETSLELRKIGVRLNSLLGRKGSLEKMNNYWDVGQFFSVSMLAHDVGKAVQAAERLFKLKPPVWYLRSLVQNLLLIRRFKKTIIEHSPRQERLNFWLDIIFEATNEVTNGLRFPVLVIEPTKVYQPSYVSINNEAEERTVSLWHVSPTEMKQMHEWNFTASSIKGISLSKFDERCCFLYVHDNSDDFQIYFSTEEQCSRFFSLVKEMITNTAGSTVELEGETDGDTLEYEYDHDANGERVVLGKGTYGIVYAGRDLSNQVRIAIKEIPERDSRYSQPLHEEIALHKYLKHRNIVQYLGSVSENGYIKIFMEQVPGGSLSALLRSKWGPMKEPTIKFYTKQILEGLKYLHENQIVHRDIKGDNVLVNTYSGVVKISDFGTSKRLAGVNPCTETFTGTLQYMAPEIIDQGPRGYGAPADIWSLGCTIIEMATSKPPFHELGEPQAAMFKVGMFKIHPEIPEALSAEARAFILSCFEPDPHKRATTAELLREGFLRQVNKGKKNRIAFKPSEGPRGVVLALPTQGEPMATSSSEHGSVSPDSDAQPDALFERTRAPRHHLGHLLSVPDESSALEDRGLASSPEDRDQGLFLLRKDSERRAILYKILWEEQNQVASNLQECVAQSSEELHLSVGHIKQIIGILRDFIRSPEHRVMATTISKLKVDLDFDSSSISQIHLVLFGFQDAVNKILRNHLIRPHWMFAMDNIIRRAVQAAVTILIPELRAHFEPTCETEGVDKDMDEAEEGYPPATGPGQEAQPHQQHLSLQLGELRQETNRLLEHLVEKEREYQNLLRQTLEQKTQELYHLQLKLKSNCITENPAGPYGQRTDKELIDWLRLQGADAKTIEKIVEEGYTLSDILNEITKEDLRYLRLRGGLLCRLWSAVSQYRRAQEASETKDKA
CDKL2, sequence (Q92772 whole entry): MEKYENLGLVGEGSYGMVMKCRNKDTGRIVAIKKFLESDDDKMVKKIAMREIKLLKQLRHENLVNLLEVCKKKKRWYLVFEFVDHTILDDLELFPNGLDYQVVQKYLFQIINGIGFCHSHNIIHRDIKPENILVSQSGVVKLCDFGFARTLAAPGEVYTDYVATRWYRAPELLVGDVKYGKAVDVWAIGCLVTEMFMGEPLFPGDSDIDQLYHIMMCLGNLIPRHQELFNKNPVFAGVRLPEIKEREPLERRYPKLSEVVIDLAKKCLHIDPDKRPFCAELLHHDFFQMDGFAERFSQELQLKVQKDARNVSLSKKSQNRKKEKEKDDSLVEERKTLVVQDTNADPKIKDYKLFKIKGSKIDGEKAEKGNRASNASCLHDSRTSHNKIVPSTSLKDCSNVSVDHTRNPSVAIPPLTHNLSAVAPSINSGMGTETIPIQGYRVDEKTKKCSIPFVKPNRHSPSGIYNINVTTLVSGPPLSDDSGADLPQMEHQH
T6 sequence (Q13882 whole entry): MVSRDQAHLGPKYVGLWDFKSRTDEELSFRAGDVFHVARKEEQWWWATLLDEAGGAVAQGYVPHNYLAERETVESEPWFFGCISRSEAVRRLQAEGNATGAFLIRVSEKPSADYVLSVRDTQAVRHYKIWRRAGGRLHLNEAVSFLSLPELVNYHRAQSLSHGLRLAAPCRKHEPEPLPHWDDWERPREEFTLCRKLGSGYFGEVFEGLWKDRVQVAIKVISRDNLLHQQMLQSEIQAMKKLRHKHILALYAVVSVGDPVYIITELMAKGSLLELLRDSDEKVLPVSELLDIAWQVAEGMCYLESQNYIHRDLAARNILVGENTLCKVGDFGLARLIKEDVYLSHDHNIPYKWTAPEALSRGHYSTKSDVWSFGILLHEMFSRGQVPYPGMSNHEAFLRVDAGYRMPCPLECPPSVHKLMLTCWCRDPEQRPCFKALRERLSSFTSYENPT
MAP4K2, sequence (Q12851 whole entry): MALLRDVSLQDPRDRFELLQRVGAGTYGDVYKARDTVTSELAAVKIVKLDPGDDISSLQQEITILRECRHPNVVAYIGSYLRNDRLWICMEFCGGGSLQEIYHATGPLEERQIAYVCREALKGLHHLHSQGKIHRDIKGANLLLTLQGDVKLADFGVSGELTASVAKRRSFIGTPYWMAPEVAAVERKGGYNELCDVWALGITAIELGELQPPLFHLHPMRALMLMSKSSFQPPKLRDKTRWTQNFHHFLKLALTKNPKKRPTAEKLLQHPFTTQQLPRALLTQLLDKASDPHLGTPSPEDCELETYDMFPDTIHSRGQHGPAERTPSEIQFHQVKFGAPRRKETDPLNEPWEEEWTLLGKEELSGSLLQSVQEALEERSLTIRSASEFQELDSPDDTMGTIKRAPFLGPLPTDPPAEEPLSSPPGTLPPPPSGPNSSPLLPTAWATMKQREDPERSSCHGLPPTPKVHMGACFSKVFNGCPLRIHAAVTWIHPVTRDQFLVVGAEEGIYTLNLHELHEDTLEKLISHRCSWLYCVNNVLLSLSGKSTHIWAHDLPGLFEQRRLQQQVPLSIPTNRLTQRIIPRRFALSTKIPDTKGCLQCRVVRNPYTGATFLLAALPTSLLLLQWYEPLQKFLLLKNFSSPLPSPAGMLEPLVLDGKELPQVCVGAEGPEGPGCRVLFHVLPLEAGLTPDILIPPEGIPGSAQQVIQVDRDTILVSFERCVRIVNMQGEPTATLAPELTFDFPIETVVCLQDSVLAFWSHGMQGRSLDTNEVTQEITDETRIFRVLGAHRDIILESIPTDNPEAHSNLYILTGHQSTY
T3 sequence (O00141 whole entry): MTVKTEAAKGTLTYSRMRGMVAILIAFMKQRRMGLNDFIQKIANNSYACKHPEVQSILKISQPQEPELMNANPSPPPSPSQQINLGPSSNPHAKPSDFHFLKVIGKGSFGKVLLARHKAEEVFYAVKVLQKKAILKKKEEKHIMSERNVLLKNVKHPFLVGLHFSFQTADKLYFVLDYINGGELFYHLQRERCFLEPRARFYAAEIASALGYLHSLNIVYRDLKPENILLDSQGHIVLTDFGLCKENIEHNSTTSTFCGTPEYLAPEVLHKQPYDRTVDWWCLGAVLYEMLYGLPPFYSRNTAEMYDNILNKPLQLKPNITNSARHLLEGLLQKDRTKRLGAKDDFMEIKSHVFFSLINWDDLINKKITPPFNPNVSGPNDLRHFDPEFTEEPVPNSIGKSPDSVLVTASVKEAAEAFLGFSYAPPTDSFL

[O-][S@@+](Cc1cncs1)C(c1ccccc1)c1ccccc1 [S-CE-123, (S)-5-((Benzhydrylsulfinyl)Methyl)Thiazole]
remaining binding at 2.8 µM (MARK2): 100% | remaining binding at 2.8 µM (MET(M1250T)): 99% | remaining binding at 2.8 µM (CDKL2): 89% | remaining binding at 2.8 µM (ERN1): 86% | remaining binding at 2.8 µM [1]: 93% | remaining binding at 2.8 µM (NEK9): 100% | remaining binding at 2.8 µM (MAP3K1): 85% | remaining binding at 2.8 µM (ERK5): 91% | remaining binding at 2.8 µM (TGFBR1): 86% | remaining binding at 2.8 µM (MAP3K15): 84% | remaining binding at 2.8 µM (PLK1): 79% | remaining binding at 2.8 µM (SGK): 94% | remaining binding at 2.8 µM (MEK5): 98% | remaining binding at 2.8 µM (TNK1): 74% | remaining binding at 2.8 µM (CSK): 98% | remaining binding at 2.8 µM (PRKD3): 96% | remaining binding at 2.8 µM (CSNK1G2): 94% | remaining binding at 2.8 µM (KIT): 97% | remaining binding at 2.8 µM (PFTAIRE2): 100% | remaining binding at 2.8 µM (BRK): 96% | remaining binding at 2.8 µM (SRPK2): 76% | remaining binding at 2.8 µM (NEK6): 100% | remaining binding at 2.8 µM (FLT3(R834Q)): 90% | remaining binding at 2.8 µM (p38-alpha): 100% | remaining binding at 2.8 µM (MAP4K2): 100% | remaining binding at 2.8 µM (INSRR): 94%
